Measured values reported in patent US20080171697A1, “Peptides Having For Example Antiangiogenic Activity and Applications Thereof In Therapeutics” (priority 2003, published 2008).
Positions of bridges follow the written chain, without caps; N, C: chain ends. No end group written: not given here.

Legend:
HUVECs [1] = experiment: Study of the peptide entry process in HUVECs; assay type: cell-based, human; conditions: for entry of the peptide into HUVECs: cotreatment with dextran beads for 5 h
Description: No entry of the FITC-CycRAD peptide into HUVECs, nor entry of the FITC-CycRGD peptide into HeLas is observed.

HUVEC cells [2] = experiment: Cytochrome c release in cellula (microscopy, anti-cytochrome c and anti-VDAC); assay type: cell-based, human; conditions: 24 h of treatment, 10 μM
HUVEC cells [3] = experiment: Drop in mitochondrial membrane potential in cellula (JC-1, microscope); assay type: cell-based, human; conditions: HUVEC cells treated for 16-24 h with 15 μM, JC-1 labeling
HUVECs [4] = experiment: Intracellular routing of TEAM-VP (confocal microscope); assay type: cell-based, human; conditions: for codistribution with the lysosomes (anti-Lamp2-FITC): Streptavidin-Texas Red; for codistribution with the mitochondria (anti-VDAC): Streptavidin-FITC
Procedure: HUVECs treated with TEAM-VP for 8, 24 and 32 h are observed using a confocal microscope.

[5] = target: T1, αVβ3 integrins at the surface of endothelial cells (human, UniProt P06756 31-1048; P05106 27-788); experiment: peptide brought into contact with endothelial cells; endocytosis, confocal microscopy
T1 construct: whole, on cells; Native integrin on HUVEC cells; the cells also carry other integrins (αVβ5 was stained as well); also called αVβ3 receptors

[6] = target: T1, αVβ3 integrins at the surface of …; experiment: flow cytometry of FITC-labeled peptide on HUVEC cells (FIG. 2)
Procedure: The HUVEC cells were or were not preincubated for 30 min at ambient temperature with 200 μM of nonlabeled CycRGD peptide before the addition of FITC-CycRGD peptide (10 μM) for 45 min., and were analyzed by flow cytometry (FIG. 2b).

T1 sequence (P06756 31-1048, chain 1 of 2): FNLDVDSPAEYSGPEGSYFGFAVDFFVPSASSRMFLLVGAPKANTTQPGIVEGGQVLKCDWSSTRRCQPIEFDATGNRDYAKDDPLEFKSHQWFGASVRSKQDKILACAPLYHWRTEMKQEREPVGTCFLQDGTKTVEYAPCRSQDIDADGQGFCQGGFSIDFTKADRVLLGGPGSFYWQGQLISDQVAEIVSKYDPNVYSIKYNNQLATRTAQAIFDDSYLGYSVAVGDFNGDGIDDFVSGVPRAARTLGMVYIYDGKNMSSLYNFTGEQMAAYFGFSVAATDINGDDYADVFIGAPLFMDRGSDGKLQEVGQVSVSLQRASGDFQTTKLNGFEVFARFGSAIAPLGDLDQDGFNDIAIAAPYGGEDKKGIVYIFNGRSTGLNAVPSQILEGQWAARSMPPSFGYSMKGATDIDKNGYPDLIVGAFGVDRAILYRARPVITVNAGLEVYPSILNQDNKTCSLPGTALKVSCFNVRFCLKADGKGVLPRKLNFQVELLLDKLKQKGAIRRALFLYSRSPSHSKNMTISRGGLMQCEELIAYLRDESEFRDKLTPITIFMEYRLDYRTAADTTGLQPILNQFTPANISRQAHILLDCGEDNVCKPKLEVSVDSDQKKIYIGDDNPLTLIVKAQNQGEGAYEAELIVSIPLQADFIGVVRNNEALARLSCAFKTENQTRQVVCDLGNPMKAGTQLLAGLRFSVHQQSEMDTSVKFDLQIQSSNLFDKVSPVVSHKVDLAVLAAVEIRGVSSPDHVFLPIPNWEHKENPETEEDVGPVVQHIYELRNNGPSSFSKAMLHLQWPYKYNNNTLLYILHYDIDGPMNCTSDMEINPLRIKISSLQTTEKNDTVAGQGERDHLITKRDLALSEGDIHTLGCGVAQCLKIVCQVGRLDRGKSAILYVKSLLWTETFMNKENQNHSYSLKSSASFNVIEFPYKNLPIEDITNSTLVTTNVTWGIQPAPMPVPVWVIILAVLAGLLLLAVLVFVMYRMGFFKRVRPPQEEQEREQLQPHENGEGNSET
T1 sequence (P05106 27-788, chain 2 of 2): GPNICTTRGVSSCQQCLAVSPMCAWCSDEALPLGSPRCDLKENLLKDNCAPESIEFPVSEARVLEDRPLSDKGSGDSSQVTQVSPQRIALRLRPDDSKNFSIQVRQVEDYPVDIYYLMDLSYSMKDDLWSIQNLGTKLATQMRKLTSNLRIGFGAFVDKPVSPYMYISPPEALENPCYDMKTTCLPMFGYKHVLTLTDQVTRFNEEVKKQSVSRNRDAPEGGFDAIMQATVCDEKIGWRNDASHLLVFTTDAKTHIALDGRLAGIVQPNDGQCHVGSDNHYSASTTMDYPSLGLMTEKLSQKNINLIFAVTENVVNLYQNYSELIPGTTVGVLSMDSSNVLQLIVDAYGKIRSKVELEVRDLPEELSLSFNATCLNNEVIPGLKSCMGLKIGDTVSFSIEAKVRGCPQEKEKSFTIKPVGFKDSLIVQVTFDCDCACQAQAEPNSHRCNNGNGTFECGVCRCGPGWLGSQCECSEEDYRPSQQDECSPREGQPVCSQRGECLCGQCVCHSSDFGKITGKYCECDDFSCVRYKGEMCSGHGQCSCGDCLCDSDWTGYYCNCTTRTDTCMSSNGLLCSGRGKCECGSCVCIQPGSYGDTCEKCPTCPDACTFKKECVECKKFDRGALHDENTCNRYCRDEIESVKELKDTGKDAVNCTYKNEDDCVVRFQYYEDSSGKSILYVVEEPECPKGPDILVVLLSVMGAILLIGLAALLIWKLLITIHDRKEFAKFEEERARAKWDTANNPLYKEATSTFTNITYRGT

## GG*CRADMFG*CGG-amide (FITC, cyclised, GG/CGG flanks, amide) [FITC-CycRAD]
HUVECs [1]
  entry of the peptide into HUVECs: No entry

## GG*CRGDMFG*C-GG-LLFIHFRIGSRHSRIG-amide (GGCRGDMFGCGGLLFIHFRIGSRHSRIG-NH2; disulfide 3-10; N-terminus assumed; SMILES CC[C@H](C)[C@H](NC(=O)[C@H](CCCNC(=N)N)NC(=O)[C@H](CO)NC(=O)[C@H](Cc1c[nH]cn1)NC(=O)[C@H](CCCNC(=N)N)NC(=O)[C@H](CO)NC(=O)CNC(=O)[C@@H](NC(=O)[C@H](CCCNC(=N)N)NC(=O)[C@H](Cc1ccccc1)NC(=O)[C@H](Cc1c[nH]cn1)NC(=O)[C@@H](NC(=O)[C@H](Cc1ccccc1)NC(=O)[C@H](CC(C)C)NC(=O)[C@H](CC(C)C)NC(=O)CNC(=O)CNC(=O)[C@@H]1CSSC[C@H](NC(=O)CNC(=O)CN)C(=O)N[C@@H](CCCNC(=N)N)C(=O)NCC(=O)N[C@@H](CC(=O)O)C(=O)N[C@@H](CCSC)C(=O)N[C@@H](Cc2ccccc2)C(=O)NCC(=O)N1)[C@@H](C)CC)[C@@H](C)CC)C(=O)NCC(N)=O) [TEAM-VP]
HUVEC cells [2]
  release of cytochrome c in cellula: Release of cytochrome C observed
HUVECs [1]; HUVECs, treatment with sodium azide+deoxyglucose
  entry of the peptide under sodium azide+deoxyglucose: inhibited by treatment with sodium azide+deoxyglucose
HUVEC cells [3]
  drop in mitochondrial membrane potential in cellula: Drop in potential observed
HUVECs [4]; 8 h of treatment
  codistribution with the lysosomes (anti-Lamp2-FITC): codistributes with the lysosomes
HUVECs [4]; 24 h
  codistribution with the mitochondria (anti-VDAC): partially codistributes
HUVECs [4]; 24 h of treatment
  codistribution with the lysosomes (anti-Lamp2-FITC): would appear to leave these organelles
HUVECs [4]; 32 h
  codistribution with the mitochondria (anti-VDAC): totally codistributes
HUVECs [4]; throughout the treatment (8, 24 and 32 h)
  codistribution with the Golgi apparatus (anti-Golgin): No codistribution

## GG*CRGDMFG*CGG-amide (GGCRGDMFGCGG-NH2; disulfide 3-10; also: labeled with FITC in the binding assays) [FITC-CycRGD]
HUVECs [1]; HUVECs, cotreatment for 5 h
  colocalization with dextran beads: colocalize with dextran beads
HUVECs [1]
  entry of the peptide into HUVECs: enter the HUVECs

B1: TEAM-VP (SEQ ID No 2: GG*CRGDMFG*C-GG-[…]-amide) (peptide)
peptide: GGCRGDMFGCGGLLFIHFRIGSRHSRIG-NH2
modifications: disulfide 3-10; not fully specified; also: with or without biotin, FITC label also used
notes: also called chimeric peptide
[5]
  binding result: binds

B2: GG*CRGDMFG*CGG-amide (CycRGD) (peptide)
peptide: GGCRGDMFGCGG-NH2
modifications: disulfide 3-10; also: labeled with FITC in the binding assays
notes: Cyclised targeting part of TEAM-VP; also called FITC-CycRGD; CycRGD peptide
[6]
  binding result: binds
